Reference: PMC3972818 (Nature medicine, 2014)
In brackets after ≈: the same amount, converted by molar mass.

Tests used:
M. tuberculosis H37Rv = assay: MIC, microbroth dilution; assay type: cell-based; conditions: Mycobacterium tuberculosis
[1] = system: M. tuberculosis ATCC 35822; assay type: cell-based, Mycobacterium tuberculosis
[2] = system: M. tuberculosis ATCC 35820; assay type: cell-based, Mycobacterium tuberculosis
[3] = system: M. tuberculosis ATCC 35838; assay type: cell-based, Mycobacterium tuberculosis
[4] = system: M. tuberculosis ATCC 35837; assay: microbe, parasite or virus in culture; assay type: cell-based; conditions: Mycobacterium tuberculosis, ATCC35837
[5] = system: M. tuberculosis H37Rv-HL-14; assay type: cell-based, Mycobacterium tuberculosis
[6] = system: M. tuberculosis H37Rv-HL-15; assay type: cell-based, Mycobacterium tuberculosis

| Structure (SMILES) | MIC (M. tuberculosis H37Rv) [µg/mL] | MIC [1] [µg/mL] | MIC [2] [µg/mL] | MIC [3] [µg/mL] | MIC [4] [µg/mL] | MIC [5] [µg/mL] | MIC [6] [µg/mL] |
| --- | --- | --- | --- | --- | --- | --- | --- |
| [H]/N=C(/N)N[C@H]1[C@H](O)[C@@H](O)[C@H](O[C@@H]2O[C@@H](C)[C@](O)(C=O)[C@H]2O[C@@H]2O[C@@H](CO)[C@H](O)[C@@H](O)[C@@H]2NC)[C@@H](N/C(N)=N\[H])[C@@H]1O [Streptomycin, streptomycin] | 1.6 (≈ 2.75 µM) | 1.6 (≈ 2.75 µM) | >200 | 1.6 (≈ 2.75 µM) | 1.6 (≈ 2.75 µM) | 1.6 (≈ 2.75 µM) | 1.6 (≈ 2.75 µM) |
| CN[C@@H]1[C@H](O)[C@H](NC)[C@H]2O[C@@]3(O)C(=O)C[C@@H](C)O[C@H]3O[C@@H]2[C@H]1O [Spectinomycin, spectinomycin] | 100 (≈ 301 µM) | 100 (≈ 301 µM) | 200 (≈ 602 µM) | 100 (≈ 301 µM) | 100 (≈ 301 µM) | >200 | >200 |
| CC[C@@H](CO)NCCN[C@@H](CC)CO [Ethambutol] | – | – | – | – | > 25 | – | – |
